# Test results reported in US20250230149A1, “MGLUR5 MODULATING COMPOUNDS, COMPOSITIONS, AND METHODS OF USE” (Allyx Therapeutics, Inc., priority 2022, published 2025).
# Like-named read-outs stand apart in the source and are kept apart here.
# How the values were obtained:
# [1] = Approximate solubility (visual) in solvents; format: physicochemical; details: thermodynamic from solid, read-out: Approx. solubility
# Description: The polymorph study protocol involved the use of a selection of solvents in which the solubility of Compound 1 was initially evaluated. Four typologies of experiments were then set up: temperature cycling, evaporative, long-term slurries and vapor diffusion. The number of solvents, solvent volumes and amount of material to be used in each experiment was based on solubility values and the kind of experiment.
# Approximate solubility (visual) of Compound 1 was assessed in a list of solvents selected based on class diversity including solvent/water mixtures (Table 5). Compound 1 (5.0±0.2 mg) was weighted in vials and known aliquots of solvent were progressively added at 20° C. until a clear solution was visually observed; magnetic stirring was applied. The final solutions were stirred at room temperature overnight to evaluate any re-crystallization phenomena.
# [2] = molecular target: T1, pregnane X receptor (PXR) (Homo sapiens, UniProt O75469); test: PXR receptor activation, human; format: in vitro ADME
# T1 sequence (O75469 1-434): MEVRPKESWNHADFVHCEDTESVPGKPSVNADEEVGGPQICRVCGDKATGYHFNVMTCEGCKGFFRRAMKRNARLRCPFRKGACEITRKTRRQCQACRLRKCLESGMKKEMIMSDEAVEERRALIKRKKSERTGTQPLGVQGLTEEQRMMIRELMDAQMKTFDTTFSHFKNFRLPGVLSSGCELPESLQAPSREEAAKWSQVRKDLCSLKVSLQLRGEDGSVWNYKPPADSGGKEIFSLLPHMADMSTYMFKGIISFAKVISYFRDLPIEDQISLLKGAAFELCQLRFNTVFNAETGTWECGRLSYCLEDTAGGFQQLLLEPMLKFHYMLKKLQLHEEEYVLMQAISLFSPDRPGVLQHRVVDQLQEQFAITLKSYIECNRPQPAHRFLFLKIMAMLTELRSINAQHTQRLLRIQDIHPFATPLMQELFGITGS
# Description: (§1) The objective of this study was to determine the human and rat pregnane X receptor (PXR) and human and rat aryl hydrocarbon receptor (AhR) receptor activation potential of Compound 1 Form A. The activation of PXR is a marker for induction of CYP3A4/5 and […] and the activation of AhR is a marker for induction of CYP1A.
# [3] = molecular target: aryl hydrocarbon receptor (AhR) (Homo sapiens, UniProt P35869); test: AhR receptor activation, human; format: in vitro ADME; details: at 30 μM
# Sequence of aryl hydrocarbon receptor (AhR) (Homo sapiens, UniProt P35869) (P35869 11-848): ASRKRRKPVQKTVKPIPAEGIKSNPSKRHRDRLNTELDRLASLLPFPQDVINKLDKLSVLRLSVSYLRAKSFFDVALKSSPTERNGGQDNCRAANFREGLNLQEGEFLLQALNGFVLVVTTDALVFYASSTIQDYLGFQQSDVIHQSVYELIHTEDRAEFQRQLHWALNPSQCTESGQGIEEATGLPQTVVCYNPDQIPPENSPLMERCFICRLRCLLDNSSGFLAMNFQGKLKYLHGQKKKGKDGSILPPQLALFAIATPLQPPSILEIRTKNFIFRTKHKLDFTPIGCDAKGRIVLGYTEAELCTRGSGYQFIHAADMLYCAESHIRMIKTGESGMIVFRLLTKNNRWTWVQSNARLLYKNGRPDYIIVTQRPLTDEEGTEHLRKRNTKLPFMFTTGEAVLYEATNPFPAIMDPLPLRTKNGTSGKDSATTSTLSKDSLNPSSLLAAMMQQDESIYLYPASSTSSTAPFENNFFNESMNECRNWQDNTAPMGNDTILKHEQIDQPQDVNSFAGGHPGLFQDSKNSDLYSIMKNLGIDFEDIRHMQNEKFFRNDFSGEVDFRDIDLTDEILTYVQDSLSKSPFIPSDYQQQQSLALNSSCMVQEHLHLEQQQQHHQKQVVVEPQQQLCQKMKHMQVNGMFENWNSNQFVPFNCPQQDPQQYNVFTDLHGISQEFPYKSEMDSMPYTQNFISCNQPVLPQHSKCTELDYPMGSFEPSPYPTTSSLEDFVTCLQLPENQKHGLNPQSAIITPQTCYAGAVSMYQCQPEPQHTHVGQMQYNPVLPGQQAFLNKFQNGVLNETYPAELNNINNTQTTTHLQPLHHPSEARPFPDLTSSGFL
# Description: as §1
# [4] = molecular target: aryl hydrocarbon receptor (AhR) (Rattus norvegicus, UniProt P41738); test: AhR receptor activation, rat; format: in vitro ADME; details: at 30 μM
# Sequence of aryl hydrocarbon receptor (AhR) (Rattus norvegicus, UniProt P41738) (P41738 10-853): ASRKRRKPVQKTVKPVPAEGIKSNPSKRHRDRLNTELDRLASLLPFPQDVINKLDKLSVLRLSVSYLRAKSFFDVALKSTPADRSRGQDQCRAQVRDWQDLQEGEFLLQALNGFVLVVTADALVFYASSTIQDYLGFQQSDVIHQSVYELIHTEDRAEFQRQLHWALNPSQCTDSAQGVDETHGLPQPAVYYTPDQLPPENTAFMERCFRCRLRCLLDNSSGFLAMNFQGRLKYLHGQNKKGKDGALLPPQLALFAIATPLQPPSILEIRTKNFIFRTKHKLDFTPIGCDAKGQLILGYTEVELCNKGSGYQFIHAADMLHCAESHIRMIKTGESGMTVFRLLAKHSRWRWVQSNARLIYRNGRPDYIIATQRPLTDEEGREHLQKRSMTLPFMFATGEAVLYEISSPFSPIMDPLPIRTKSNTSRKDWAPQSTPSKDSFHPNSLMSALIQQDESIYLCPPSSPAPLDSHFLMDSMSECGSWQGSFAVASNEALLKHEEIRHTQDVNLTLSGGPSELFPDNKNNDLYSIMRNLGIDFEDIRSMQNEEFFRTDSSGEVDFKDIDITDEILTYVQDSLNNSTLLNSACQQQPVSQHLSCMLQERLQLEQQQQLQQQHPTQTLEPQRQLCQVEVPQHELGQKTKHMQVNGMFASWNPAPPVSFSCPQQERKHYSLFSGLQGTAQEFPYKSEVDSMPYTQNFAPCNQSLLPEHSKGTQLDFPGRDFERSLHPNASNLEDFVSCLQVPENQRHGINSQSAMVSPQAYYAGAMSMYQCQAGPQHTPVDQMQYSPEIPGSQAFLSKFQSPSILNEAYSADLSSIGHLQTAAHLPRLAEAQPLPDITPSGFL
# Description: as §1
# mGluR5 = molecular target: T2, mGluR5 (Mus musculus, UniProt Q3UVX5); test: [18F]FPEB PET displacement, receptor occupancy; format: in vivo, mice; details: for receptor occupancy at 3.75 mg/kg: mouse
# T2 construct: from tissue; host or cells: brain of living mice
# T2 sequence (Q3UVX5 19-1203): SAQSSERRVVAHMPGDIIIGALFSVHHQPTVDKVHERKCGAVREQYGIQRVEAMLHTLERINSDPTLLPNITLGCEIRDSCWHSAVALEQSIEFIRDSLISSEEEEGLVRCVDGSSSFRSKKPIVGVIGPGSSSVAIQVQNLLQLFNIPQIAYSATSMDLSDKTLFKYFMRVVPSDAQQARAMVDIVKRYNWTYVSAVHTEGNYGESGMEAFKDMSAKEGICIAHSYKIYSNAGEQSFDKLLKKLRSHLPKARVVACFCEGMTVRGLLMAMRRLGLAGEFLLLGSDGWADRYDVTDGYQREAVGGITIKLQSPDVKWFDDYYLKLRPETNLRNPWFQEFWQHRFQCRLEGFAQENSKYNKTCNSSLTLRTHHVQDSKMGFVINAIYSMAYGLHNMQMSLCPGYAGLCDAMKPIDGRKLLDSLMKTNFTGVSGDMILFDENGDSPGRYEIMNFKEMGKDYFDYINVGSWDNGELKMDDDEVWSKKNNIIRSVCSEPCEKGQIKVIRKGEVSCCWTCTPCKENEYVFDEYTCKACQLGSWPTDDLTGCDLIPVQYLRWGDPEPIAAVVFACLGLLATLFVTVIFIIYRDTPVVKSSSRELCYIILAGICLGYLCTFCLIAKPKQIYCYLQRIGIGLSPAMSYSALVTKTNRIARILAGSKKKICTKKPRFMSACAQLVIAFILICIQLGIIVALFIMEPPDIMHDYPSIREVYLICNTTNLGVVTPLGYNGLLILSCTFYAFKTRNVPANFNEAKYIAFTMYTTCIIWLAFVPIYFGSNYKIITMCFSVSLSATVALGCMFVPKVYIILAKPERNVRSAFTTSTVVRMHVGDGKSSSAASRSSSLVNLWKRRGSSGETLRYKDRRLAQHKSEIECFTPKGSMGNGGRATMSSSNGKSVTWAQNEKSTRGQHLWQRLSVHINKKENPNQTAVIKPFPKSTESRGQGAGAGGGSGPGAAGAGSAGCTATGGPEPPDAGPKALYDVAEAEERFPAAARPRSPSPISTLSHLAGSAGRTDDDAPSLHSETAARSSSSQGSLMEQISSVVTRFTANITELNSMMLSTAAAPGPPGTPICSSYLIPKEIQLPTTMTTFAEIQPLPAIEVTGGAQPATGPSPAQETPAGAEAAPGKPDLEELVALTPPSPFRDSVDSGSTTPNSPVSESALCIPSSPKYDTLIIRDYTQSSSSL
# Description: A mGluR5 PET ligand, [^18F]FPEB, was used to assess receptor occupancy in mice. Mice were dosed orally twice a day with different doses of Compound 1. The available mGluR5 sites in brain were assessed in anesthetized mice both at peak 1 h after a single dose, and at trough after 7 days of twice daily (b.i.d.) oral dosing. The 3.75 mg/kg b.i.d. dose maintains >90% receptor occupancy throughout the dosing period. […] FPEB into the brain of mice. Displacement studies were conducted at expected trough levels and conducted at three dose levels: 0.42, 1.25 and 3.75 mg/kg. The 3.75 mg/kg dose was able to achieve >90% receptor occupancy at trough.
# C57/BI6J mice = test: Prevention of positive allosteric modulator (PAM) induced seizures; format: in vivo; details: oral gavage 2 hours before PAM 20 mg/kg i.p.
# Description: The objective of this study was to assess the enantiomeric selectivity of Compound 1 for the mGluR5 receptor as a function of seizure prevention. It had been previously reported that PAMs of mGluR5 are capable of inducing seizures in C57/BI6J mice.
# Compound 1 (0.12, 0.24, 0.47, 0.94, 1.88, 3.75 or 7.5 mg/kg), enantiomer of Compound 1 (7.5, 15 or 30 mg/kg) or vehicle were administered by oral gavage to C57/BI6J mice of 3-11 months of age. After 2 hours, a PAM compound was administered at 20 mg/kg via intraperitoneal injection. Animals were then placed in a 10 inch diameter acrylic cage for observation and video recording for 2 h post dose and seizures were scored using the Racine seizure scoring criteria and normalized to a scale of 0-1.
# C1q = C1q production, synaptic localization and synaptic engulfment; design: species or system mice; details: mouse, in vivo
# Description: Compound 1 (e.g., Form A) prevented Alzheimer's triggered aberrant synaptic signaling while preserving physiological Glu activation. Studies have been conducted to show oral Compound 1 effectively occupied brain mGluR5 sites visualized by [^18F]FPEB PET at doses 250-fold below adverse effect levels in rodent and non-human primate. […] Production of the microglial mediator, C1q, was not altered by Compound 1, but Alzheimer-gene-dependent C1q localization to synapses and synaptic engulfment were prevented. Thus, selective modulation of mGluR5 reversed neuronal gene expression changes to protect synapses from damage by microglial mediators.
compound,measurement,setting,value
"O=C1N[C@H](c2cncc(C#Cc3ccccc3)c2)[C@@H](c2ccccc2Cl)O1 [Compound 1, (4R,5R)-5-(2-chlorophenyl)-4-(5-(phenylethynyl)pyridin-3-yl)oxazolidin-2-one]",solubility,"[1]; aqueous with cosolvent or surfactant or cyclodextrin, 2-propanol/water 50:50, 20° C.",~5 mg/mL
same,solubility,"[1]; aqueous with cosolvent or surfactant or cyclodextrin, acetone/water 50:50, 20° C.",~5 mg/mL
same,solubility,"[1]; organic solvent or mixture, 2-butanol, 20° C.",50 to 100 mg/mL
same,solubility,"[1]; organic solvent or mixture, 2-methyltetrahydrofuran (MeTHF), 20° C.",> 100 mg/mL
same,solubility,"[1]; organic solvent or mixture, 2-propanol/water 80:20, 20° C.",50 to 100 mg/mL
same,solubility,"[1]; organic solvent or mixture, 2-propanol/water 90:10, 20° C.",30 to 50 mg/mL
same,solubility,"[1]; organic solvent or mixture, acetone, 20° C.",> 100 mg/mL
same,solubility,"[1]; organic solvent or mixture, acetone/water 90:10, 20° C.",> 100 mg/mL
same,solubility,"[1]; organic solvent or mixture, acetonitrile, 20° C.",50 to 100 mg/mL
same,solubility,"[1]; organic solvent or mixture, benzonitrile, 20° C.",> 100 mg/mL
same,solubility,"[1]; organic solvent or mixture, dichloromethane, 20° C.",> 100 mg/mL
same,solubility,"[1]; organic solvent or mixture, ethanol, 20° C.",> 100 mg/mL
same,solubility,"[1]; organic solvent or mixture, ethyl acetate, 20° C.",> 100 mg/mL
same,solubility,"[1]; organic solvent or mixture, heptane, 20° C.",< 2 mg/mL
same,solubility,"[1]; organic solvent or mixture, i-propyl acetate, 20° C.",50 to 100 mg/mL
same,solubility,"[1]; organic solvent or mixture, isopropyl alcohol (IPA), 20° C.",25 to 30 mg/mL
same,solubility,"[1]; organic solvent or mixture, methyl ethyl ketone (MEK), 20° C.",> 100 mg/mL
same,solubility,"[1]; organic solvent or mixture, methyl isobutyl ketone (MIK), 20° C.",> 100 mg/mL
same,solubility,"[1]; organic solvent or mixture, methyl tert-butyl ether (MTBE), 20° C.",17 to 25 mg/mL
same,solubility,"[1]; organic solvent or mixture, t-Butyl acetate, 20° C.",25 to 30 mg/mL
same,solubility,"[1]; organic solvent or mixture, tetrahydrofuran (THF), 20° C.",> 100 mg/mL
same,solubility,"[1]; organic solvent or mixture, toluene, 20° C.",25 to 30 mg/mL
same,solubility,"[1]; water, 20° C.",< 2 mg/mL
same,"PXR activation, % of the positive control",[2],29.6%
same,"calculated F2 value, PXR",[2],5.05 UM
same,mean maximum fold activation of PXR,[2],4.58 fold
same,"AhR activation, % of the positive control",[3],1.11%
same,mean maximum fold activation of AhR,[3],1.78 fold
same,"AhR activation, % of the positive control",[4],0.946%
same,mean maximum fold activation of AhR,[4],1.42 fold
same,free drug above the Ki,"mGluR5; mice, 3.75 mg/kg b.i.d.",25 fold
same,free trough drug level,"mGluR5; mice, 3.75 mg/kg b.i.d. oral",15 nM
same,receptor occupancy at 3.75 mg/kg,"mGluR5; mice, 3.75 mg/kg b.i.d. oral, read-out: receptor occupancy throughout the dosing period",> 90%
same,receptor occupancy at 3.75 mg/kg,"mGluR5; mice, 3.75 mg/kg dose, oral, read-out: receptor occupancy at trough",> 90%
same,doses occupying brain mGluR5 sites below adverse effect levels,"mGluR5; oral, rodent and non-human primate",250 fold
same,seizure prevention activity,"C57/BI6J mice; Compound 1 0.12-7.5 mg/kg, enantiomer 7.5-30 mg/kg",dose dependent prevention
same,IC50 of inhibition of PAM-induced seizures,C57/BI6J mice; Racine score,1.09 mg/kg
same,Alzheimer-gene-dependent C1q localization to synapses and synaptic engulfment,C1q,prevented
same,production of the microglial mediator C1q,C1q,not altered
